Experiment: xn = mol fraction of the nth substance listed
Conditions: Fluid (supercritical or subcritical phases), Vibrating tube method

c1ccc2ccccc2c1 [naphthalene] + O=C=O
Conditions	mass density [kg/m3]
318.11 K, 16084 kPa, x1 = 0.0093	785.19
318.11 K, 16667 kPa, x1 = 0.0065	790.99
318.11 K, 16960 kPa, x1 = 0.0093	796.88
318.11 K, 17000 kPa, x1 = 0.0049	787.78
318.11 K, 17635 kPa, x1 = 0.0065	803.78
318.11 K, 17984 kPa, x1 = 0.0093	809.07
318.11 K, 17995 kPa, x1 = 0.0049	800.44
318.11 K, 18460 kPa, x1 = 0.0065	812.58
318.11 K, 18977 kPa, x1 = 0.0049	811.61
318.11 K, 18989 kPa, x1 = 0.0093	819.91
318.11 K, 19176 kPa, x1 = 0.0065	820.58
318.11 K, 19789 kPa, x1 = 0.0093	827.92
318.11 K, 19904 kPa, x1 = 0.0065	827.96
318.11 K, 20045 kPa, x1 = 0.0049	822.71
318.11 K, 20953 kPa, x1 = 0.0093	838.54
318.11 K, 20963 kPa, x1 = 0.0049	831.61
318.11 K, 21000 kPa, x1 = 0.0065	838.23
318.11 K, 21926 kPa, x1 = 0.0065	846.14
318.11 K, 22004 kPa, x1 = 0.0049	840.84
318.11 K, 22031 kPa, x1 = 0.0093	847.64
318.11 K, 22694 kPa, x1 = 0.0093	852.96
318.11 K, 22962 kPa, x1 = 0.0049	848.85
318.11 K, 22968 kPa, x1 = 0.0065	854.56
318.11 K, 23517 kPa, x1 = 0.0093	859.24
318.11 K, 23867 kPa, x1 = 0.0065	861.51
318.11 K, 24017 kPa, x1 = 0.0049	857.07
318.11 K, 24931 kPa, x1 = 0.0093	869.34
318.11 K, 24993 kPa, x1 = 0.0065	869.51
318.13 K, 9447 kPa, x1 = 0.0038	467.84
318.13 K, 9511 kPa, x1 = 0.0038	479.86
318.13 K, 9624 kPa, x1 = 0.0038	500.05
318.13 K, 9723 kPa, x1 = 0.0038	516.4
318.13 K, 9815 kPa, x1 = 0.0038	530.29
318.13 K, 10026 kPa, x1 = 0.0038	558.2
318.13 K, 11028 kPa, x1 = 0.0038	638.56
318.13 K, 12034 kPa, x1 = 0.0038	682.9
318.13 K, 13013 kPa, x1 = 0.0038	712.68
318.13 K, 14016 kPa, x1 = 0.0038	736.26
318.13 K, 15020 kPa, x1 = 0.0038	755.47
318.13 K, 15435 kPa, x1 = 0.0214	798.75
318.13 K, 15510 kPa, x1 = 0.0214	799.63
318.13 K, 15611 kPa, x1 = 0.0214	800.92
318.13 K, 15832 kPa, x1 = 0.0214	803.59
318.13 K, 16002 kPa, x1 = 0.0038	771.53
318.13 K, 16016 kPa, x1 = 0.0214	805.76
318.13 K, 16531 kPa, x1 = 0.0214	811.8
318.13 K, 16555 kPa, x1 = 0.0204	810.95
318.13 K, 17029 kPa, x1 = 0.0214	817.29
318.13 K, 17033 kPa, x1 = 0.0038	786.19
318.13 K, 17049 kPa, x1 = 0.0204	816.49
318.13 K, 17588 kPa, x1 = 0.0204	822.21
318.13 K, 18000 kPa, x1 = 0.0214	827.3
318.13 K, 18021 kPa, x1 = 0.0038	798.72
318.13 K, 18067 kPa, x1 = 0.0204	827.01
318.13 K, 18584 kPa, x1 = 0.0204	832.05
318.13 K, 19038 kPa, x1 = 0.0038	810.39
318.13 K, 19046 kPa, x1 = 0.0214	837.22
318.13 K, 19123 kPa, x1 = 0.0204	837.04
318.13 K, 19537 kPa, x1 = 0.0204	840.73
318.13 K, 20002 kPa, x1 = 0.0038	820.43
318.13 K, 20016 kPa, x1 = 0.0214	845.63
318.13 K, 20055 kPa, x1 = 0.0204	845.16
318.13 K, 20564 kPa, x1 = 0.0204	849.36
318.13 K, 21012 kPa, x1 = 0.0214	853.76
318.13 K, 21027 kPa, x1 = 0.0038	830.26
318.13 K, 21058 kPa, x1 = 0.0204	853.31
318.13 K, 21568 kPa, x1 = 0.0204	857.24
318.13 K, 22015 kPa, x1 = 0.0038	839.08
318.13 K, 22015 kPa, x1 = 0.0214	861.35
318.13 K, 22022 kPa, x1 = 0.0204	860.61
318.13 K, 22506 kPa, x1 = 0.0204	864.13
318.13 K, 23014 kPa, x1 = 0.0038	847.4
318.13 K, 24022 kPa, x1 = 0.0038	855.31
318.13 K, 25018 kPa, x1 = 0.0038	862.63
318.14 K, 19647 kPa, x1 = 0.0237	845.05
318.14 K, 19720 kPa, x1 = 0.0237	845.71
318.14 K, 19769 kPa, x1 = 0.0237	846.15
318.14 K, 19815 kPa, x1 = 0.0237	846.6
318.14 K, 19868 kPa, x1 = 0.0237	847.1
318.14 K, 19940 kPa, x1 = 0.0237	847.81
318.14 K, 20042 kPa, x1 = 0.0237	848.76
318.14 K, 20202 kPa, x1 = 0.0237	850.16
318.14 K, 20409 kPa, x1 = 0.0237	851.93
318.14 K, 20762 kPa, x1 = 0.0237	854.79
318.14 K, 21268 kPa, x1 = 0.0237	858.75
318.14 K, 21759 kPa, x1 = 0.0237	862.5
318.14 K, 22256 kPa, x1 = 0.0237	866.12
318.14 K, 22769 kPa, x1 = 0.0237	869.73
318.14 K, 23308 kPa, x1 = 0.0237	873.42
318.14 K, 23561 kPa, x1 = 0.0237	875.25
323.03 K, 14061 kPa, x1 = 0.0198	735.87
323.03 K, 14281 kPa, x1 = 0.0198	740.33
323.03 K, 14482 kPa, x1 = 0.0198	744.21
323.03 K, 15014 kPa, x1 = 0.0198	753.86
323.03 K, 16032 kPa, x1 = 0.0198	770.24
323.03 K, 17031 kPa, x1 = 0.0198	784.26
323.03 K, 18075 kPa, x1 = 0.0198	797.2
323.03 K, 19028 kPa, x1 = 0.0198	807.85
323.03 K, 20080 kPa, x1 = 0.0198	818.58
323.03 K, 21050 kPa, x1 = 0.0198	827.65
323.03 K, 22246 kPa, x1 = 0.0198	838
323.03 K, 24029 kPa, x1 = 0.0198	851.96
323.03 K, 24780 kPa, x1 = 0.0198	857.36
323.06 K, 16579 kPa, x1 = 0.0276	788.12
323.06 K, 16788 kPa, x1 = 0.0276	790.83
323.06 K, 17004 kPa, x1 = 0.0276	793.51
323.06 K, 17203 kPa, x1 = 0.0276	795.99
323.06 K, 17382 kPa, x1 = 0.0276	798.16
323.06 K, 17590 kPa, x1 = 0.0276	800.59
323.06 K, 17798 kPa, x1 = 0.0276	803
323.06 K, 18018 kPa, x1 = 0.0276	805.49
323.06 K, 18224 kPa, x1 = 0.0276	807.76
323.06 K, 18490 kPa, x1 = 0.0276	810.6
323.06 K, 18694 kPa, x1 = 0.0276	812.78
323.06 K, 19009 kPa, x1 = 0.0276	816
323.06 K, 19476 kPa, x1 = 0.0276	820.59
323.06 K, 19995 kPa, x1 = 0.0276	825.42
323.06 K, 21006 kPa, x1 = 0.0276	834.34
323.06 K, 22002 kPa, x1 = 0.0276	842.55
323.06 K, 22987 kPa, x1 = 0.0276	850.05
323.06 K, 24002 kPa, x1 = 0.0276	857.32
323.06 K, 24701 kPa, x1 = 0.0276	862.06
323.07 K, 10356 kPa, x1 = 0.0049	477.23
323.07 K, 10584 kPa, x1 = 0.0049	504.85
323.07 K, 11014 kPa, x1 = 0.0049	548.62
323.07 K, 11189 kPa, x1 = 0.0093	594.87
323.07 K, 11528 kPa, x1 = 0.0093	616.57
323.07 K, 12026 kPa, x1 = 0.0093	642.38
323.07 K, 12054 kPa, x1 = 0.0049	619.66
323.07 K, 12157 kPa, x1 = 0.0144	663.68
323.07 K, 12308 kPa, x1 = 0.0144	669.44
323.07 K, 12400 kPa, x1 = 0.0144	672.76
323.07 K, 12573 kPa, x1 = 0.0144	678.74
323.07 K, 12986 kPa, x1 = 0.0144	691.87
323.07 K, 12997 kPa, x1 = 0.0049	660.38
323.07 K, 13031 kPa, x1 = 0.0093	680.85
323.07 K, 13495 kPa, x1 = 0.0144	706.09
323.07 K, 14001 kPa, x1 = 0.0093	708.22
323.07 K, 14001 kPa, x1 = 0.0144	718.59
323.07 K, 14013 kPa, x1 = 0.0049	692.38
323.07 K, 14975 kPa, x1 = 0.0093	730.03
323.07 K, 15034 kPa, x1 = 0.0049	717.29
323.07 K, 15051 kPa, x1 = 0.0144	740.61
323.07 K, 15260 kPa, x1 = 0.0235	764.21
323.07 K, 15541 kPa, x1 = 0.0235	768.75
323.07 K, 15987 kPa, x1 = 0.0049	736.48
323.07 K, 15999 kPa, x1 = 0.0144	757.24
323.07 K, 16027 kPa, x1 = 0.0235	776.04
323.07 K, 16061 kPa, x1 = 0.0093	750.23
323.07 K, 16993 kPa, x1 = 0.0093	765.16
323.07 K, 17000 kPa, x1 = 0.0144	772.5
323.07 K, 17006 kPa, x1 = 0.0049	753.98
323.07 K, 17013 kPa, x1 = 0.0235	790.56
323.07 K, 18007 kPa, x1 = 0.0235	801.9
323.07 K, 18016 kPa, x1 = 0.0049	769.15
323.07 K, 18016 kPa, x1 = 0.0144	786.14
323.07 K, 18045 kPa, x1 = 0.0093	779.85
323.07 K, 18986 kPa, x1 = 0.0049	782.09
323.07 K, 18996 kPa, x1 = 0.0144	797.91
323.07 K, 19008 kPa, x1 = 0.0235	812.85
323.07 K, 19015 kPa, x1 = 0.0093	791.95
323.07 K, 19996 kPa, x1 = 0.0093	803.09
323.07 K, 20004 kPa, x1 = 0.0049	794.32
323.07 K, 20013 kPa, x1 = 0.0144	809.02
323.07 K, 20026 kPa, x1 = 0.0235	822.87
323.07 K, 20987 kPa, x1 = 0.0049	805.12
323.07 K, 20996 kPa, x1 = 0.0235	831.78
323.07 K, 21016 kPa, x1 = 0.0093	813.7
323.07 K, 21017 kPa, x1 = 0.0144	819.02

From the NIST ThermoML archive (doi:10.1016/j.fluid.2005.06.010)
